As usually defined, the EC50 is the concentration needed to bring the measured effect to its halfway point.

For one data set, the system named is THLE. Put plainly: Cytotoxicity against human THLE cells assessed as ATP depletion by CellTitre-Glo assay. Type of data set: functional, cell-based. As to conditions: TDE = time-dependent effect.
Data set [1] in a line: Induction of ROS generation assessed as generation of H2O2 measured as oxidation of phenol red after 60 mins by phenol red assay. Type of data set: physicochemical.
A short description of data set [2]: Cytotoxicity against human THLE cells assessed as ATP depletion after 4 hrs by CellTitre-Glo assay. Format: functional, cell-based.
The nature of data set [3]: Cytotoxicity against human THLE cells assessed as ATP depletion after 24 hrs by CellTitre-Glo assay. Type of data set: functional, cell-based.
The nature of data set [4]: Cytotoxicity against human THLE cells assessed as ATP depletion after 72 hrs by CellTitre-Glo assay. Type of data set: functional, cell-based.

A value given as a limit tells only on which side of the number the result lay.

Consider `CC1=C(C)C(=O)c2ccccc2C1=O`, for which the Activity entry in the data set with THLE is “tde”. Moreover, the EC50 at 60 min in data set [1] turned out to be 110 µM. The EC50 in data set [2] turned out to be 40.9 µM; in data set [3], 23.1 µM; in data set [4], 21.1 µM.
Taken in the same sequence, the figures for `Cn1nc(-c2ccccc2)cc2c(=O)n(C)c(=O)nc1-2` were “tde”, above 1000 µM, above 300 µM, above 300 µM and above 300 µM.
Taken in the same sequence, the figures for `Cc1c2cc3c(ccc4ccccc43)oc-2nc(=O)c1C#N` were “tde”, 11 µM, above 300 µM, above 300 µM and above 300 µM.
For `O=C1NC(=O)/C(=C\c2ccncc2)C2=C1CCCC2`, the EC50 at 60 min in data set [1] amounted to 95 µM.
For the compound `Cc1cc2nc3c(=O)[nH]c(=O)nc-3n(C[C@H](O)[C@H](O)[C@H](O)CO)c2cc1C` [RIBOFLAVIN], the Activity entry in the data set on THLE is “tde”. Moreover, the EC50 at 60 min in data set [1] was 129 µM. In addition, the EC50 in data set [2], in data set [3] and in data set [4] was above 300 µM in each case.
As for `O=C1NC(=O)/C(=C\c2ccc(C(=O)O)cc2)C2=C1CCCC2`, in data set [1], the EC50 at 60 min worked out at 53 µM.
For the compound `Cn1c(=O)nc2sc3ccccc3nc-2c1=O`, in the data set with THLE, the Activity result was “tde”. Besides, the EC50 at 60 min in data set [1] amounted to 151 µM. In addition, the 50% effective concentration (EC50) was found to be 10.6 µM in data set [2], 9.9 µM in data set [3] and 8.2 µM in data set [4].
For `O=C1NC(=O)/C(=C\c2ccc(O)cc2)C2=C1CCCC2`, the half-maximal effective concentration (EC50) at 60 min in data set [1] was 8.6 µM.
Consider `O=c1[nH]c(=O)c2nc3ccccc3nc2[nH]1` [ALLOXAZINE], for which, in the data set on THLE, the Activity entry was “tde”. Further, the EC50 in data set [2], in data set [3] and in data set [4] was above 300 µM each time.
`NC(=O)N1C(=O)/C(=C(\O)c2ccc(Cl)s2)c2cc(Cl)ccc21`: the Activity entry in the data set on THLE is “tde”. The EC50 at 60 min in data set [1] came to 667 µM. In addition, the results for the EC50 in data set [2], in data set [3] and in data set [4] were above 300 µM, 253 µM and 117 µM, respectively.
Taken in the same sequence, the figures for `Cn1nc(/C=C/c2ccccc2)nc2c(=O)n(C)c(=O)nc1-2` were “tde”, 1 µM, 1.3 µM, 1.2 µM and 1.7 µM.
Taken in the same sequence, the figures for `Cn1nc(-c2cccs2)nc2c(=O)n(C)c(=O)nc1-2` were “tde”, 2 µM, 2.4 µM, 2.9 µM and 3.1 µM.
On to `CCCCCc1ccc(/C=C2\C(=O)NC(=O)C3=C2CCCC3)cc1`, for which the EC50 at 60 min in data set [1] turned out to be 9.2 µM.
As for `Cn1nc(-c2cccnc2)nc2c(=O)n(C)c(=O)nc1-2`, in the data set with THLE, the Activity entry is “tde”. The EC50 at 60 min in data set [1] stood at 1 µM. For the same compound, the values for the EC50 in data set [2], in data set [3] and in data set [4] were 5.2 µM, 2.1 µM and 2 µM, respectively.
For the compound `O=C1NC(=O)/C(=C\c2ccccc2)C2=C1CCC2`, in the data set with THLE, the Activity entry was “tde”. In addition, the concentration giving a half-maximal response (EC50) at 60 min in data set [1] is 233 µM. Besides, the EC50 in data set [2], in data set [3] and in data set [4] was above 300 µM each time.
With `C[n+]1ccc(-c2cc[n+](C)cc2)cc1` [PARAQUAT], the Activity entry in the data set on THLE is “tde”. In data set [1], the EC50 at 60 min was above 1000 µM. Also, the EC50 in data set [2], in data set [3] and in data set [4] was above 300 µM throughout.
Consider `Nc1ccc2nc3c(=O)[nH]c(=O)nc-3[nH]c2c1`, for which the Activity entry in the data set with THLE was “tde”. Besides, in data set [1], the half-maximal effective concentration (EC50) at 60 min turned out to be 110 µM. The EC50 in data set [2] is 264 µM; in data set [3] it was 250 µM; in data set [4], 245 µM.
Taken in the same sequence, the figures for `O=C1NC(=O)/C(=C\c2ccccc2)C2=C1CCCC2` [TESIMIDE] were “tde”, 26 µM, above 300 µM, above 300 µM and above 300 µM.
Turning to `Cn1nc(-c2ccc([N+](=O)[O-])cc2)nc2c(=O)n(C)c(=O)nc1-2`, the Activity entry in the data set on THLE is “tde”. Besides, the EC50 at 60 min in data set [1] amounted to 1 µM. Also, the EC50 in data set [2] came out at 5.2 µM; in data set [3] it was 2.9 µM; in data set [4], 3.2 µM.
Taken in the same sequence, the figures for `Cn1nc(/C=C\c2ccccc2)nc2c(=O)n(C)c(=O)nc1-2` were “tde”, 1 µM, 4.8 µM, 5.9 µM and 6.8 µM.
In the same order, the values of `CCn1cc(C(=O)O)c(=O)c2cc(F)c(N3CCNCC3)cc21` [NORFLOXACIN] are “tde”, above 1000 µM, above 300 µM, above 300 µM and above 300 µM.
For the compound `O=C1NC(=O)/C(=C\c2ccc(C3CCCCC3)cc2)C2=C1CCCC2`, in data set [1], the EC50 at 60 min worked out at 121 µM.
Still for that read-out and setting: then `O=C1NC(=O)/C(=C\c2ccc(Cl)cc2Cl)C2=C1CCCC2`, with 236 µM.
Turning to `CCn1cc(C(=O)O)c(=O)c2ccc(C)nc21` [NALIDIXIC ACID], the Activity entry in the data set with THLE was “tde”. Also, the EC50 at 60 min in data set [1] is above 1000 µM. For the same compound, the EC50 in data set [2], in data set [3] and in data set [4] was above 300 µM in each case.
Regarding `Cn1nc(-c2ccncc2)nc2c(=O)n(C)c(=O)nc1-2`, the Activity entry with THLE is “tde”. Further, in data set [1], the EC50 at 60 min is 1 µM. Also, the EC50 amounted to 11.7 µM in data set [2], 5.8 µM in data set [3] and 3.1 µM in data set [4].
As to `CC1=CC(=O)c2ccccc2C1=O` [MENADIONE], the Activity entry in the data set on THLE is “tde”. The EC50 at 60 min in data set [1] amounted to 29 µM. Besides, the figures for the EC50 in data set [2], in data set [3] and in data set [4] were 94 µM, 27.5 µM and 17.7 µM, respectively.
As for `O=C1NC(=O)/C(=C\c2ccc(Cl)cc2)C2=C1CCCC2`, the EC50 at 60 min in data set [1] came to 0.5 µM.
As for `CCOc1ccc2nc3c(=O)n(C)c(=O)nc-3sc2c1`, the Activity result in the data set with THLE was “tde”. The EC50 at 60 min in data set [1] stood at 70 µM. Besides, the EC50 is 46 µM in data set [2], 79 µM in data set [3] and 68 µM in data set [4].
In the same order, the values of `NC(=O)N1C(=O)/C(=C(\O)c2ccc(F)s2)c2cc(F)c(Cl)cc21` are “tde”, 833 µM, above 300 µM, 175 µM and 108 µM.
Taken in the same sequence, the figures for `O=c1[nH]c(=O)c2nccnc2[nH]1` were “tde”, 713 µM, above 300 µM, above 300 µM and above 300 µM.
As to `O=c1nc2[nH]c3ccccc3nc-2c(=O)[nH]1` [ALLOXAZINE], in data set [1], the EC50 at 60 min turned out to be 226 µM.
`CCCc1nc2c(=O)n(C)c(=O)nc-2n(C)n1`: in the data set with THLE, the Activity entry was “tde”. The concentration giving a half-maximal response (EC50) at 60 min in data set [1] was 1 µM. Besides, the EC50 in data set [2] was 16.5 µM; in data set [3], 9.1 µM; in data set [4], 13 µM.
Consider `O=C1NC(=O)/C(=C\c2ccco2)C2=C1CCCC2`, for which the concentration giving a half-maximal response (EC50) at 60 min in data set [1] is 18 µM.
On to `COc1ccc(-c2nc3c(=O)n(C)c(=O)nc-3n(C)n2)cc1`, for which the Activity entry in the data set with THLE was “tde”. The half-maximal effective concentration (EC50) at 60 min in data set [1] was determined as 2 µM. In addition, the values for the EC50 in data set [2], in data set [3] and in data set [4] were 9.6 µM, 6 µM and 7.2 µM, respectively.
As for `COc1cccc2c1C(=O)c1c(O)c3c(c(O)c1C2=O)C[C@@](O)(C(=O)CO)C[C@@H]3O[C@H]1C[C@H](N)[C@H](O)[C@H](C)O1` [DOXORUBICIN], the Activity result with THLE is “tde”. Also, in data set [1], the EC50 at 60 min was found to be 179 µM. In addition, the 50% effective concentration (EC50) in data set [2] turned out to be 215 µM; in data set [3] it was 1.8 µM; in data set [4], 0.53 µM.
In the same order, the values of `O=C1C=C(Cl)C(=O)c2ccccc21` are “tde”, 2.5 µM, 21.1 µM, 13.8 µM and 37.4 µM.
Turning to `O=C1NC(=O)/C(=C\c2ccc(F)cc2)C2=C1CCCC2`, the EC50 at 60 min in data set [1] turned out to be 60 µM.
With `Cn1nc(-c2ccccc2)nc2c(=O)n(C)c(=O)nc1-2`, the Activity result with THLE is “tde”. Also, the EC50 at 60 min in data set [1] turned out to be 2 µM. Besides, the concentration for a half-maximal effect (EC50) in data set [2] was 9 µM; in data set [3] it was 4.5 µM; in data set [4] it was 7.4 µM.
In the same order, the values of `Cn1ncnc2c(=O)n(C)c(=O)nc1-2` are “tde”, 1 µM, 2.7 µM, 2.1 µM and 3.2 µM.
Taken in the same sequence, the figures for `C[n+]1cc2c3c(ccc2c2ccc4cc5c(cc4c21)OCO5)OCO3` [SANGUINARIUM] were “tde”, 513 µM, 1 µM, 0.89 µM and 0.93 µM.
With `COc1cc(/C=C2\C(=O)NC(=O)C3=C2CCCC3)cc(OC)c1OC`, the EC50 at 60 min in data set [1] stood at 0.5 µM.
Turning to `Cc1cc(C)n(C)c2cccc(=O)c1-2`, in the data set with THLE, the Activity result was “tde”. Further, the EC50 at 60 min in data set [1] came to 33 µM. Further, the EC50 in data set [2], in data set [3] and in data set [4] was above 300 µM each time.
On to `CC(=O)N/C=C1/C(=O)NC(=O)C(C#N)=C1C`, for which, in data set [1], the EC50 at 60 min was 250 µM.

Values taken from ChEMBL document CHEMBL3132807, “Chemical motifs that redox cycle and their associated toxicity” (Medchemcomm, 2013).
